In brackets after ≈: the same amount, converted by molar mass.
Tests used:
Format in all cases: cell-based
[1] = system: Bacillus subtilis PCI 219; assay: MIC, antibacterial spectrum (aerobic bacteria); details: Bacillus subtilis, PCI219
[2] = system: Staphylococcus aureus 209 P; assay: MIC, antibacterial spectrum (aerobic bacteria); details: Staphylococcus aureus, 209P
S. aureus Smith = assay: MIC, antibacterial spectrum (aerobic bacteria); details: Staphylococcus aureus
[3] = system: S. aureus IID 670 (Terajima); assay: MIC, antibacterial spectrum (aerobic bacteria); details: Staphylococcus aureus, IID670
S. epidermidis IID 866 = assay: MIC, antibacterial spectrum (aerobic bacteria); details: Staphylococcus epidermidis, IID866
E. faecalis IID 682 = assay: MIC, antibacterial spectrum (aerobic bacteria); details: Enterococcus faecalis, IID682
[4] = system: Streptococcus pneumoniae IID 552; assay: MIC, antibacterial spectrum (aerobic bacteria); details: Streptococcus pneumoniae, IID552
[5] = system: S. pyogenes IID 689 (S-8); assay: MIC, antibacterial spectrum (aerobic bacteria); details: Streptococcus pyogenes, IID689
S. pyogenes IID 692 = assay: MIC, antibacterial spectrum (aerobic bacteria); details: Streptococcus pyogenes, IID692
[6] = system: Escherichia coli NIHJ JC-2; assay: MIC, antibacterial spectrum (aerobic bacteria); details: NIHJJC2, Escherichia coli NIHJ JC-2, Gram -, 10^6 cells/ml
E. coli ATCC 10536 = assay: MIC, antibacterial spectrum (aerobic bacteria); details: Escherichia coli, ATCC10536
E. coli ML 4707 = assay: MIC, antibacterial spectrum (aerobic bacteria); details: Escherichia coli, ML4707
[7] = system: Proteus vulgaris IFO 3167; assay: MIC, antibacterial spectrum (aerobic bacteria); details: Proteus vulgaris, IFO3167
P. mirabilis IID 994 = assay: MIC, antibacterial spectrum (aerobic bacteria); details: Proteus mirabilis, IID994
[8] = system: Citrobacter freundii IID 976; assay: MIC, antibacterial spectrum (aerobic bacteria); details: Citrobacter freundii, IID976
[9] = system: Klebsiella pneumoniae KY(GN)6445; assay: MIC, antibacterial spectrum (aerobic bacteria); details: Klebsiella pneumoniae
K. pneumoniae 1-220S = assay: MIC, antibacterial spectrum (aerobic bacteria); details: Klebsiella pneumoniae, 1220S
[10] = system: Salmonella enteritidis IID 604; assay: MIC, antibacterial spectrum (aerobic bacteria); details: Salmonella enterica
Shigella sonnei IID 969 = assay: MIC, antibacterial spectrum (aerobic bacteria); details: IID969, Shigella sonnei IID 969, Gram -, 10^6 cells/ml
Method: Minimal inhibitory concentrations (MICs) were determined in accordance with the method recommended by Japan Society of Chemotherapy.

[11] = system: Yersinia enterocolitica IID 981; assay: MIC, antibacterial spectrum (aerobic bacteria); details: Yersinia enterocolitica, IID981
[12] = system: Serratia marcescens IID 618; assay: MIC, antibacterial spectrum (aerobic bacteria); details: Serratia marcescens, IID618
S. marcescens GN 7577 = assay: MIC, antibacterial spectrum (aerobic bacteria); details: Serratia marcescens, GN7577
[13] = system: Pseudomonas aeruginosa V-1; assay: MIC, antibacterial spectrum (aerobic bacteria); details: Pseudomonas aeruginosa, V1
P. aeruginosa IFO 12689 = assay: MIC, antibacterial spectrum (aerobic bacteria); details: Pseudomonas aeruginosa, IFO12689
P. aeruginosa IID 1210 = assay: MIC, antibacterial spectrum (aerobic bacteria); details: Pseudomonas aeruginosa, IID1210
P. cepacia GIFU 518 = assay: MIC, antibacterial spectrum (aerobic bacteria); details: Burkholderia cepacia, GIFU518
P. maltophilia GIFU 2491 = assay: MIC, antibacterial spectrum (aerobic bacteria); details: Stenotrophomonas maltophilia, GIFU2491
[14] = system: Acinetobacter anitratus IID 876; assay: MIC, antibacterial spectrum (aerobic bacteria); details: Acinetobacter calcoaceticus, IID876
[15] = system: Alcaligenes faecalis 0114002; assay: MIC, antibacterial spectrum (aerobic bacteria); details: Alcaligenes faecalis 0114002, Gram -, 10^6 cells/ml
[16] = system: Bacteroides fragilis GM 7000; assay: MIC, antibacterial spectrum (anaerobic bacteria); details: Bacteroides fragilis, GM7000
B. fragilis 0558 = assay: MIC, antibacterial spectrum (anaerobic bacteria); details: Bacteroides fragilis, 0558
B. fragilis 25285 = assay: MIC, antibacterial spectrum (anaerobic bacteria); details: Bacteroides fragilis, 25285
B. distasonis 8503 = assay: MIC, antibacterial spectrum (anaerobic bacteria); details: Parabacteroides distasonis, 8503
[17] = system: B. thetaiotaomicron (0661); assay: MIC, antibacterial spectrum (anaerobic bacteria); details: Bacteroides thetaiotaomicron
[18] = system: Fusobacterium necrophorum S-45; assay: MIC, antibacterial spectrum (anaerobic bacteria); details: Fusobacterium necrophorum, S45
[19] = system: Eubacterium lentum GAI 5242; assay: MIC, antibacterial spectrum (anaerobic bacteria); details: Eggerthella lenta, GAI5242
[20] = system: Propionibacterium acens 11828; assay: MIC, antibacterial spectrum (anaerobic bacteria); details: Propionibacterium, 11828
[21] = system: Peptococcus magnus KY 017; assay: MIC, antibacterial spectrum (anaerobic bacteria); details: Finegoldia magna, KY017
C. perfringens KYA 13123 = assay: microbe, parasite or virus in culture; details: Clostridium perfringens, KYA13123
C. ramosum = assay: MIC, antibacterial spectrum (anaerobic bacteria); details: Thomasclavelia ramosa
[22] = system: Peptostreptococcus anaerobius KYA 27337; assay: MIC, antibacterial spectrum (anaerobic bacteria); details: Peptostreptococcus anaerobius, KYA27337
Pst. micros UPI 5464-1 = assay: MIC, antibacterial spectrum (anaerobic bacteria); details: Parvimonas micra, UPI54641, Pst. micros UPI 5464-1, Gram +, 10^6 cells/ml
[23] = system: Veillonella parvula KYA 10790; assay: MIC, antibacterial spectrum (anaerobic bacteria); details: KYA10790, Veillonella parvula KYA 10790, Gram -, 10^6 cells/ml

Molecule `O=C(O)c1cn(C2CC2)c2cc(N3CCNCC3)c(F)cc2c1=O` [CPFX, Ciprofloxacin, reference compound] has an MIC [1] of 0.05 µg/mL (≈ 0.151 µM), an MIC [2] of 0.2 µg/mL (≈ 0.604 µM) and an MIC (S. aureus Smith) of 0.39 µg/mL (≈ 1.18 µM). It also gave an MIC [3] of 0.2 µg/mL (≈ 0.604 µM), an MIC (S. epidermidis IID 866) of 0.2 µg/mL (≈ 0.604 µM) and an MIC (E. faecalis IID 682) of 0.78 µg/mL (≈ 2.35 µM). The MIC [4] was 0.78 µg/mL (≈ 2.35 µM), the MIC [5] was 0.78 µg/mL (≈ 2.35 µM) and the MIC (S. pyogenes IID 692) was 0.78 µg/mL (≈ 2.35 µM). For the same molecule, the MIC [6] was no more than 0.0063 µg/mL, the MIC (E. coli ATCC 10536) was 0.0125 µg/mL (≈ 0.0377 µM) and the MIC (E. coli ML 4707) was 0.0125 µg/mL (≈ 0.0377 µM). It also gave an MIC [7] of 0.0125 µg/mL (≈ 0.0377 µM), an MIC (P. mirabilis IID 994) of 0.0125 µg/mL (≈ 0.0377 µM) and an MIC [8] of 0.0125 µg/mL (≈ 0.0377 µM). It also gave an MIC [9] of 0.0125 µg/mL (≈ 0.0377 µM), an MIC (K. pneumoniae 1-220S) of 0.05 µg/mL (≈ 0.151 µM) and an MIC [10] of 0.0125 µg/mL (≈ 0.0377 µM). For the same molecule, the MIC (Shigella sonnei IID 969) was 0.0125 µg/mL (≈ 0.0377 µM), the MIC [11] was 0.05 µg/mL (≈ 0.151 µM) and the MIC [12] was 0.05 µg/mL (≈ 0.151 µM). It also gave an MIC (S. marcescens GN 7577) of 0.39 µg/mL (≈ 1.18 µM), an MIC [13] of 0.05 µg/mL (≈ 0.151 µM) and an MIC (P. aeruginosa IFO 12689) of 0.2 µg/mL (≈ 0.604 µM). For the same molecule, the MIC (P. aeruginosa IID 1210) was 0.2 µg/mL (≈ 0.604 µM), the MIC (P. cepacia GIFU 518) was 0.39 µg/mL (≈ 1.18 µM) and the MIC (P. maltophilia GIFU 2491) was 0.39 µg/mL (≈ 1.18 µM). It also gave an MIC [14] of 0.1 µg/mL (≈ 0.302 µM), an MIC [15] of 0.2 µg/mL (≈ 0.604 µM) and an MIC [16] of 6.25 µg/mL (≈ 18.9 µM). For the same molecule, the MIC (B. fragilis 0558) was 3.13 µg/mL (≈ 9.45 µM), the MIC (B. fragilis 25285) was 6.25 µg/mL (≈ 18.9 µM) and the MIC (B. distasonis 8503) was 6.25 µg/mL (≈ 18.9 µM). For the same molecule, the MIC [17] was 12.5 µg/mL (≈ 37.7 µM), the MIC [18] was 1.56 µg/mL (≈ 4.71 µM) and the MIC [19] was 0.78 µg/mL (≈ 2.35 µM). For the same molecule, the MIC [20] was 12.5 µg/mL (≈ 37.7 µM), the MIC [21] was 0.39 µg/mL (≈ 1.18 µM) and the MIC (C. perfringens KYA 13123) was 0.39 µg/mL (≈ 1.18 µM). It also gave an MIC (C. ramosum) of 12.5 µg/mL (≈ 37.7 µM), an MIC [22] of 1.56 µg/mL (≈ 4.71 µM) and an MIC (Pst. micros UPI 5464-1) of 0.2 µg/mL (≈ 0.604 µM). It also gave an MIC [23] of 0.2 µg/mL (≈ 0.604 µM).
